Test results from patent publication US20260373174A1, “THYROID BETA-AGONIST DOSING REGIMENS FOR THE TREATMENT OF X-ALD” (Viking Therapeutics, Inc., priority 2022, published 2026).

Test: previous phase 1 study, single and multiple dose cohorts
Format: in vivo, human
Details: doses used in this study (20, 40, 60, 80 mg QD, oral); preliminary results from 6 multiple dose cohorts (up to 100 mg) and 7 single dose cohorts (up to 125 mg)

In the case of `Cc1cc(OCP(=O)(O)O)cc(C)c1Cc1ccc(O)c(Cc2ccccc2)c1` [Compound 1], the lipid plasma levels is reported as “lowering of lipid plasma levels” and the safety is reported as “without safety issues”.
